# Results from patent publication US20220281848A1, “PYRAZOLE-SUBSTITUTED PYRROLIDINONES AS HERBICIDES” (FMC Corporation, priority 2019, published 2022).
# Tests used:
# Assay type in all cases: in vivo
# wheat = experiment: Test D pre-emergence, wheat seed treated with a herbicide safener; settings: 100=total damage, 0=no damage
# Experimental: (§1) A formulation containing 50 g/L of the test chemical was prepared by dissolving the active ingredient in a mixture of organic solvents and emulsifier, details of which are provided in the table. This formulation was then mixed with a small, variable amount of acetone to aid dissolution, before addition of a 0.2% v/v aqueous solution of an adjuvant, as the aqueous diluent, to form an aqueous spray solution which contains a predetermined concentration of the active ingredient.
# (§2) This aqueous spray solution was then sprayed onto plants including maize and wheat that had been seed treated with a herbicide safener, after one day's cultivation (for pre-emergence) or after about 12 days' cultivation (for post-emergence). The plants were grown from seeds sown in standard soil, placed in a glasshouse under controlled conditions (at 24/18° C. or 20/16° C., day/night; 16 h light; 65% humidity). After spray application the plants were then grown in a glasshouse under the same conditions and watered twice daily. After 15 d for post-emergence and 20 DAA for pre-emergence the test was evaluated (100=total damage to plant; 0=no damage to plant).
# [1] = test system: ivy-leaved morning glory (Ipomoea hederacea, IPOHE); experiment: Test A pre-emergence, ivy-leaved morning glory; settings: after 13 d
# In short: (§3)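 Damage rated visually at 13 d on a 0–100 scale (100 = plant killed). Pre-emergence spray one day after sowing; doses 15.625, 62.5 or 250 g/ha from an acetone/water 50:50 formulation with 0.5% Tween 20. Glasshouse at 24/16° C., 14 h photoperiod, 65% humidity.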
# [2] = test system: giant foxtail (Setaria faberi, SETFA); experiment: Test A post-emergence, giant foxtail; settings: after 13 d
# In short: (§4)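 Visual damage rating (0 no damage to 100 total damage) was made 13 d after spraying. The spray was 15.625, 62.5 or 250 g/ha in 50:50 acetone/water with 0.5% Tween 20, applied to 8-day-old glasshouse plants kept at 24/16° C, 14 h light and 65% humidity.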
# maize = experiment: Test D post-emergence, maize seed treated with a herbicide safener
# Experimental: as §1, §2
# [3] = test system: ivy-leaved morning glory (Ipomoea hederacea, IPOHE); experiment: Test A post-emergence, ivy-leaved morning glory; settings: after 13 d
# In short: as §4
# [4] = test system: giant foxtail (Setaria faberi, SETFA); experiment: Test A pre-emergence, giant foxtail; settings: after 13 d
# In short: as §3
Structure (SMILES),"damage to plant, TRZAW (wheat; rate 15, 20 DAA)","damage to plant, TRZAW (wheat; rate 30, 20 DAA)","damage to plant, TRZAW (wheat; rate 60, 20 DAA)","damage to plant, TRZAW (wheat; rate 130, 20 DAA)","damage to plant, TRZAW (wheat; rate 250, 20 DAA)","damage to plant, TRZAW (wheat; rate 500, 20 DAA)",damage to plant (100=total damage; 0=no damage) IPOHE ([1]; Pre-Emergence at 15.625 g/ha),damage to plant (100=total damage; 0=no damage) IPOHE ([1]; Pre-Emergence at 62.5 g/ha),damage to plant (100=total damage; 0=no damage) IPOHE ([1]; Pre-Emergence at 250 g/ha),damage to plant (100=total damage; 0=no damage) SETFA ([2]; Post-Emergence at 15.625 g/ha),damage to plant (100=total damage; 0=no damage) SETFA ([2]; Post-Emergence at 62.5 g/ha),damage to plant (100=total damage; 0=no damage) SETFA ([2]; Post-Emergence at 250 g/ha),"damage to plant (100=total damage to plant; 0=no damage to plant), ZEAMX (maize; rate 130, evaluated after 15 d)","damage to plant (100=total damage to plant; 0=no damage to plant), ZEAMX (maize; rate 250, evaluated after 15 d)","damage to plant (100=total damage to plant; 0=no damage to plant), ZEAMX (maize; rate 500, evaluated after 15 d)",damage to plant (100=total damage; 0=no damage) IPOHE ([3]; Post-Emergence at 15.625 g/ha),damage to plant (100=total damage; 0=no damage) IPOHE ([3]; Post-Emergence at 62.5 g/ha),damage to plant (100=total damage; 0=no damage) IPOHE ([3]; Post-Emergence at 250 g/ha),damage to plant (100=total damage; 0=no damage) SETFA ([4]; Pre-Emergence at 15.625 g/ha),damage to plant (100=total damage; 0=no damage) SETFA ([4]; Pre-Emergence at 62.5 g/ha),also measured
CCn1nc([C@H]2CN(C)C(=O)[C@@H]2C(=O)Nc2cccc(F)c2F)c2cc(F)ccc21 [Compound 8],0,0,0,0,0,0,20,20,20,70,70,80,0,0,0,20,0,30,80,90,damage to plant (100=total damage; 0=no damage) SETFA ([4]; Pre-Emergence at 250 g/ha): 90
CCn1nc([C@@H]2CN(C)C(=O)[C@H]2C(=O)Nc2cccc(F)c2F)c2cccc(F)c21 [Compound 14],0,0,0,0,60,90,30,40,70,80,80,90,0,0,20,10,30,50,60,90,damage to plant (100=total damage; 0=no damage) SETFA ([4]; Pre-Emergence at 250 g/ha): 90
